We go through two compounds from patent US10507199B2, “Molecules in the tryptophan-5-hydroxytryptophan-serotonin-NAS-melatonin/6-hydroxymelatonin sulfate-melatonin receptor 1A pathway in neurological diseases” (priority 2017, dated 2019).

The subject of one data set is cerebral ischemia. The conditions noted are these: NAS administration; Zhou et al. 2014; cited from earlier work.
Data set [1] deals with motor neurons in lumbar spinal cord of mSOD1 G93A ALS mice. Kind of data set: Nissl staining of motor neurons in lumbar spinal cord of mSOD1 G93A ALS mice. In kind it is in vivo, mouse. The conditions noted are these: NAS treatment vs saline vehicle.
Experimental: Nissl staining was performed in mSOD1G93A ALS mice and wild type littermates. Serial lumbar spinal cords were sectioned at 18 μm. Continuous 10 sections per mouse were subjected to Nissl staining. Stained motor neurons were counted in the ventral horns of all sections.
The subject of data set [2] is mSOD1 G93A ALS transgenic mice. Kind of data set: mSOD1 G93A ALS mice: disease onset (rotarod), survival, body weight. In kind it is in vivo, mouse. As for the experimental part:
Motor strength and coordination were evaluated using a rotarod. Mice were evaluated at both 15 and 5 rpm rotarod speeds. […] Mortality was defined as the age at death or when the mouse was unable to right itself within 30 second. Body weight was monitored weekly.
To determine whether NAS could be used therapeutically in these subjects, NAS was administered at 15 mg/kg/day by daily IP injection initiated at 6 weeks of age. […] ALS disease onset was defined as failure to pass the rotarod task at 15 rpm. […] Thus NAS administration also prevents motor neuron loss in mSOD1 G93A ALS mice.
For orientation: Falling from the rotarod earlier than controls is read as motor impairment.

A further data set concerns WT mice. Kind of data set: Body weight of WT mice under NAS. The conditions noted are these: NAS 7.5, 15, 30, 45 mg/kg, daily IP injection started at 6 weeks. In kind it is in vivo, mouse.
For data set [3], the system named is neonatal hypoxic-ischemic brain injury. Particulars: melatonin 15 mg/kg; Carloni et al.; cited from earlier work.
A further data set deals with humans. The conditions noted are these: cited from earlier work.
Data set [4] concerns neonatal H-I brain injury (P8 mice, unilateral carotid ligation and 60 min hypoxia). Kind of data set: Neonatal hypoxia-ischemia mouse model, H&E staining and brain area loss. In kind it is in vivo. The protocol: For histological analyses, after various time points after H-I brain injury, mice were anesthetized with IP injection of 100 mg/kg pentobarbital and then perfused through the left ventricle with PBS. […] The sections corresponding to image 205 up to caudal hippocampus region of Allen mouse brain atlas were directly mounted on SuperFrost Plus® microscope slides. H&E staining was performed on the brain at 7 days post H-I injury comprising of right unilateral carotid ligation and 60 min hypoxia. Brain sections of 50 μm thickness were stained with hematoxylin and eosin (all reagents from Fisher Scientific, Santa Clara, Calif.), dehydrated in graded ethanol solutions, cleared with xylene, examined under light microscope, and subsequently scanned with Epsom V500 photo scanner for measurements. The cross-sectional unaffected and affected areas of the hippocampus, and cortex were measured with NIH imageJ software. A total of 5 coronal slices through the same hippocampus regions were inspected for tissue loss for each animal. The total cross-sectional area in each brain region was calculated in all sections assessed, and the percentage of area loss in the lesioned hemisphere versus the unlesioned hemisphere was determined for each animal. The person performing the measurements was blinded to the study groups. Images of H & E stained sections were quantified using ImageJ software package to measure hemispheric area contralateral and ipsilateral to the H-I brain injury in order to calculate the amount of tissue lost on the ipsilateral hemisphere. The loss of brain tissue ipsilateral to the H-I injury was calculated as a percentage of the non-injured contralateral hemisphere.

In data set [5] the test system is melatonin receptor 1A (MT1). The conditions noted are these: melatonin 10 mg/kg, 30 min prior to H-I; 48 hr post H-I.
Experimental: A model of hypoxia-ischemia in newborn mice pups based on modification of Rice-Vannucci model of unilateral carotid ligation (UCL) followed by hypoxia was used.^40 C57/BL6 wild type and MT1 knockout (KO) mice litters of postnatal day 8 (P8) pups were anesthetized with 2.5% isofluorane and balanced room air, and the right common carotid artery permanently ligated. Time to anesthesia and completion of surgery was timed with a stopwatch to limit the procedure to less than 3 min. Following recovery from anesthesia after 15 min, the pups were placed in hypoxia chamber through which 8% oxygen was delivered at 6 liters per min for 60 min for histology, western blot and immunostaining and 45 mins for FJB staining. Normothermia was maintained by placing the pups in an incubator at 34° C. throughout the experiment except during hypoxia when the temperature was increased to 36° C. to counteract the cooling effect of the 8% 02 gas flow. […]
The lysate was cleared by centrifugation at 19,720×g for 10 min at 4° C., and the supernatant was analyzed by Western blotting.^20 Following right unilateral carotid ligation (UCL), C57/BL6 P8 pups were subjected to 60 min of hypoxia. […] The resulting supernatants were analyzed by Western blotting.^20, 44 Protein concentration was measured by the Bradford method.
In data set [6] the test system is neonatal H-I brain injury (P8 mice, unilateral carotid ligation and 45 min hypoxia). Nature of the data set: Neonatal hypoxia-ischemia mouse model, Fluoro-Jade B staining and histological score. In kind it is in vivo. Particulars: melatonin 5 mg/kg IP once daily, 48 hr after H-I. As for the experimental part:
FJB staining was performed at 48 hr post H-I injury of UCL followed by 45 min hypoxia. Fluoro-Jade is an anionic fluorochrome capable of selectively staining degenerating neurons in brain slices. Coronal sections of 16 μm thickness were stained with FJB using the method adapted from Schmued and colleagues.^41 Briefly, tissues mounted on glass slides were sequentially placed in 100% ethanol for 3 min, 70% ethanol for 1 min and deionized water for 1 min. Sections were oxidized for 15 min using 0.06% KMnO4 solution followed by 3 brief rinses in PBS. Slides were then immersed in a 0.001% solution of Fluoro-Jade (Histochem, Jefferson, A R) in 0.1% acetic acid for 30 min, rinsed with PBS, dried for 20 min at 45° C., cleared with xylene and cover slips applied using DPX medium. FJB stained sections were examined under a microscope independently by 2 investigators blinded to the treatment group. […] The total scores for the hippocampus and cortex were compared in melatonin treated and vehicle group.

The mark [7] stands for this setting: NAS 15 mg/kg/day, daily IP injection initiated at 6 weeks of age.
[8] abbreviates: melatonin 10 mg/kg IP once daily, first dose 30 min before H-I, 60 min hypoxia, 7 days after H-I, H&E.

“Also recorded” adds a separate entry of the source.

As for `CC(=O)NCCc1c[nH]c2ccc(O)cc12` [NAS, N-acetylserotonin], in the data set on cerebral ischemia, the lesion size entry is reported as “diminish lesion size”, the neurological score entry is listed as “improve neurological score” and the neuronal cell death entry is “attenuate neuronal cell death”. For the same compound, the “loss of motor neurons in lumbar spinal cord (Nissl staining)” value in [1] is “ameliorate the loss of motor neurons”. Moreover, the “loss of body weight during pathogenesis in mSOD1 G93A mice” value in [2] (NAS 15 mg/kg, daily IP injection started at 6 weeks) is reported as “prevents the loss of body weight”. In data set [2] (setting [7]), the “ALS disease onset (failure to pass the rotarod task at 15 rpm)” value is “delayed disease onset; also recorded: delays ALS disease onset” and the survival / mortality result is on record as “extending survival”. In addition, in the data set with WT mice, the “body weight in WT mice” value was “no effect on body weight”.

For the compound `COc1ccc2[nH]cc(CCNC(C)=O)c2c1` [melatonin, N-acetyl-5-methoxytryptamine], the “reduction in brain damage” value in data set [3] was 64%. Besides, the “side effects in humans” value with humans (humans) is “minimal”. The “safety profile in human newborns” value with humans (oxidative stress conditions in human newborns: asphyxia, sepsis, respiratory distress syndrome) was “good safety profile with no significant complications”. In [4] (setting [8]), the “hippocampal tissue (area) loss in the brain ipsilateral to carotid ligation” value is given as 28.6% and the “percentage brain tissue loss in the brain hemisphere ipsilateral to carotid ligation compared to the uninjured contralateral hemisphere” value turned out to be 9.7%. For the same compound, in data set [4] (melatonin 10 mg/kg, hippocampus), the “reduction in hippocampus damage” value was 57%. For the same compound, the “reduction in brain damage” value in data set [4] (melatonin 10 mg/kg, whole hemisphere) amounted to 60%. In addition, the “MT1 expression in brains of H-I pups (western blot)” value in data set [5] is on record as “significantly ameliorated MT1 loss”. Also, in data set [6], the “score of FJB positive cells in the cortex” value is “significantly higher score (representing worse damage) in vehicle treated pups compared with melatonin treated pups” and the “score of FJB positive cells in the hippocampus” value is reported as “significantly higher score (representing worse damage) in vehicle treated pups compared with melatonin treated pups”.
